In the supplement of paper PMC12463676, “Small-molecule dissolution of stress granules by redox modulation benefits ALS models” (Nature Chemical Biology, 2025):

Tests used:
lipoamide = compound: NC(=O)CCCCC1CCSS1 [lipoamide]; test: thermal stability z-score vs DMSO; higher = more thermally stabilized by treatment; details: HeLa, lipoamide concentration 100 µM
Experimental: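 Cellular thermal proteome profiling in HeLa cells. Cells were treated with 100 µM lipoamide for 1 h, with or without 1 mM arsenate for a further 1 h, then heated to ten temperatures (37-66.3 °C), and soluble protein was quantified by TMT mass spectrometry relative to 0.1% DMSO controls. The thermal stability score (sum of log2 fold changes minus the abundance score) was transformed to a z-score; mean of n = 3 experiments.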

potassium arsenate = compound: O=[As]([O-])(O)O.[K+] [potassium arsenate]; test: as above; details: HeLa; arsenate concentration 1 mM
Experimental: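 Cellular thermal proteome profiling in HeLa cells treated with 1 mM arsenate for 1 h (DMSO pretreatment), heated to ten temperatures (37-66.3 °C). Soluble protein was quantified by TMT mass spectrometry relative to DMSO controls; the thermal stability score was transformed to a z-score; mean of n = 3 experiments.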

[1] = arsenate co-treatment: 1 mM arsenate 1 h
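Further: each temperature applied for 3 min, abundance score taken as mean log2 fold change at the two lowest temperatures, z-score obtained by mean subtraction and division by SD.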

Sequence of UniProt Q9H8H3 (Q9H8H3 whole entry): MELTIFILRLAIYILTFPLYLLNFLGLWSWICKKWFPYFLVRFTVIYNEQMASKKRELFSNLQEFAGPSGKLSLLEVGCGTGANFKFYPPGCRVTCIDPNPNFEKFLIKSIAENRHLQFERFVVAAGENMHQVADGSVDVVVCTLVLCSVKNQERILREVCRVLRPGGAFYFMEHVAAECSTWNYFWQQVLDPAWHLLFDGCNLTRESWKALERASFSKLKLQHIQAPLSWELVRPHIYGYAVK
Sequence of UniProt Q93074 (Q93074 whole entry): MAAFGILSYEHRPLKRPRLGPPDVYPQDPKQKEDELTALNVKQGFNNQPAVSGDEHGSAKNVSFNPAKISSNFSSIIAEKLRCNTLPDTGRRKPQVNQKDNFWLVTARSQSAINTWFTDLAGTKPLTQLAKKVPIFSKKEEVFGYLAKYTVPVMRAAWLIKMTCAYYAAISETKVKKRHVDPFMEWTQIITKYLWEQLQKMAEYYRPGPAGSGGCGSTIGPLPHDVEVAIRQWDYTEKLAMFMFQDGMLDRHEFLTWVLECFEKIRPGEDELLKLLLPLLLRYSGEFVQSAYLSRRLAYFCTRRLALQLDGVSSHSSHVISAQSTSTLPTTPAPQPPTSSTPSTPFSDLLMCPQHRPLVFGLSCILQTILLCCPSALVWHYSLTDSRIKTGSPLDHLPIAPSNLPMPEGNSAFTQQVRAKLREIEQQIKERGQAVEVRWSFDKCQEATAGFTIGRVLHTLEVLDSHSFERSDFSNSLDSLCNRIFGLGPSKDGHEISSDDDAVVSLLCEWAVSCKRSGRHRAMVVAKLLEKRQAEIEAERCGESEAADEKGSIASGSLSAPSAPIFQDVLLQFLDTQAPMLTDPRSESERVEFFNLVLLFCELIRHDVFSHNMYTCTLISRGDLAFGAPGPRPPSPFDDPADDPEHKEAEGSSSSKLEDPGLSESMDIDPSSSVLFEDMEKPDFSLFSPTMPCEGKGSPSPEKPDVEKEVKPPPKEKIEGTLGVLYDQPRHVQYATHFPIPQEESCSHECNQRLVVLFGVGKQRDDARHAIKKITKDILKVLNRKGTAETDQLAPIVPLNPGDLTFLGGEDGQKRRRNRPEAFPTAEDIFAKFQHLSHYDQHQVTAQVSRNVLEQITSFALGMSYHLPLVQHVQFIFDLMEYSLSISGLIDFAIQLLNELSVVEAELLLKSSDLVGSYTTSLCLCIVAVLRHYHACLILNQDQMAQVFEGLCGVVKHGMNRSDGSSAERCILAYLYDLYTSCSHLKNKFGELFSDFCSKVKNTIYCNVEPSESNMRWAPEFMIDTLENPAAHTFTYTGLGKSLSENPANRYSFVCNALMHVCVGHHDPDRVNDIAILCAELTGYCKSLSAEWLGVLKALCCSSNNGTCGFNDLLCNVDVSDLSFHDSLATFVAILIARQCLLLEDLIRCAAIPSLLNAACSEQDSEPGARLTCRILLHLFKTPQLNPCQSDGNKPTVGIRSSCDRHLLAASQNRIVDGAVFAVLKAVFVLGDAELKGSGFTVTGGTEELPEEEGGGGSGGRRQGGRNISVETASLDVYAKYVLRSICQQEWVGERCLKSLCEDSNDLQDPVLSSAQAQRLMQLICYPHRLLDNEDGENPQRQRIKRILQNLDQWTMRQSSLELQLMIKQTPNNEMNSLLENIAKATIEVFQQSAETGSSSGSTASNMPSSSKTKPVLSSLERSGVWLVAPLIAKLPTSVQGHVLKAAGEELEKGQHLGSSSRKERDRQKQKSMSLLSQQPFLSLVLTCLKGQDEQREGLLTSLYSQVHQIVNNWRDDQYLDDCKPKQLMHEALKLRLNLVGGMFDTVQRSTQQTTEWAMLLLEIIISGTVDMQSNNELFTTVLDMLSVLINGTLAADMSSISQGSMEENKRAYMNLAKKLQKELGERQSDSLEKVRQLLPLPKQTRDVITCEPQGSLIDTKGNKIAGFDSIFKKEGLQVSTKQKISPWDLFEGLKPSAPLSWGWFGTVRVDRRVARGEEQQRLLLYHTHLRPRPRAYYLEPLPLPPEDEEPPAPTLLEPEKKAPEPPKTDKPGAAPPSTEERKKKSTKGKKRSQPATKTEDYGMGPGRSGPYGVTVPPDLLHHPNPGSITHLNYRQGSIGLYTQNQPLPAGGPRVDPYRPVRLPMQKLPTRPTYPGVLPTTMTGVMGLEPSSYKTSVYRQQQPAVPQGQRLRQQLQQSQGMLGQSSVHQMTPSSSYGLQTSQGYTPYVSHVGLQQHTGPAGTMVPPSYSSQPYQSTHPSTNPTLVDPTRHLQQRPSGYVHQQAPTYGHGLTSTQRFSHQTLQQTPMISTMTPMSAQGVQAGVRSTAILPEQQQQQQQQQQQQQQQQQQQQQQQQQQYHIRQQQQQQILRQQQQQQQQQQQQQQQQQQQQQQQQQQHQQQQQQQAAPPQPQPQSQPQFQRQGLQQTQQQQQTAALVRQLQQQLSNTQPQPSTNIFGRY
Sequence of UniProt Q5JPI9 (Q5JPI9 whole entry): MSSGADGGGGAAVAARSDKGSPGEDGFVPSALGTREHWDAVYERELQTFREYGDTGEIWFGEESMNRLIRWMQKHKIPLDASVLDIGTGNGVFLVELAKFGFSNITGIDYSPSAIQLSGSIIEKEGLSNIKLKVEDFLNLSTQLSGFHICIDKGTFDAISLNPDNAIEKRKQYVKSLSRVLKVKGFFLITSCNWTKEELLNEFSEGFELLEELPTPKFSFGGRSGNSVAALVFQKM
Sequence of UniProt Q14696 (Q14696 whole entry): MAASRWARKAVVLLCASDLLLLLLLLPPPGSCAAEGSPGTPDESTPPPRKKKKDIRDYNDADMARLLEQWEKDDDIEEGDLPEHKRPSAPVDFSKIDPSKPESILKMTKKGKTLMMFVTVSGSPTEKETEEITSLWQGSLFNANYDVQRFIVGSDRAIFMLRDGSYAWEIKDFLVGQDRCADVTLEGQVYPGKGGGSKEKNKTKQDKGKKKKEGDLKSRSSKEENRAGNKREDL
Sequence of UniProt P08581 (P08581 whole entry): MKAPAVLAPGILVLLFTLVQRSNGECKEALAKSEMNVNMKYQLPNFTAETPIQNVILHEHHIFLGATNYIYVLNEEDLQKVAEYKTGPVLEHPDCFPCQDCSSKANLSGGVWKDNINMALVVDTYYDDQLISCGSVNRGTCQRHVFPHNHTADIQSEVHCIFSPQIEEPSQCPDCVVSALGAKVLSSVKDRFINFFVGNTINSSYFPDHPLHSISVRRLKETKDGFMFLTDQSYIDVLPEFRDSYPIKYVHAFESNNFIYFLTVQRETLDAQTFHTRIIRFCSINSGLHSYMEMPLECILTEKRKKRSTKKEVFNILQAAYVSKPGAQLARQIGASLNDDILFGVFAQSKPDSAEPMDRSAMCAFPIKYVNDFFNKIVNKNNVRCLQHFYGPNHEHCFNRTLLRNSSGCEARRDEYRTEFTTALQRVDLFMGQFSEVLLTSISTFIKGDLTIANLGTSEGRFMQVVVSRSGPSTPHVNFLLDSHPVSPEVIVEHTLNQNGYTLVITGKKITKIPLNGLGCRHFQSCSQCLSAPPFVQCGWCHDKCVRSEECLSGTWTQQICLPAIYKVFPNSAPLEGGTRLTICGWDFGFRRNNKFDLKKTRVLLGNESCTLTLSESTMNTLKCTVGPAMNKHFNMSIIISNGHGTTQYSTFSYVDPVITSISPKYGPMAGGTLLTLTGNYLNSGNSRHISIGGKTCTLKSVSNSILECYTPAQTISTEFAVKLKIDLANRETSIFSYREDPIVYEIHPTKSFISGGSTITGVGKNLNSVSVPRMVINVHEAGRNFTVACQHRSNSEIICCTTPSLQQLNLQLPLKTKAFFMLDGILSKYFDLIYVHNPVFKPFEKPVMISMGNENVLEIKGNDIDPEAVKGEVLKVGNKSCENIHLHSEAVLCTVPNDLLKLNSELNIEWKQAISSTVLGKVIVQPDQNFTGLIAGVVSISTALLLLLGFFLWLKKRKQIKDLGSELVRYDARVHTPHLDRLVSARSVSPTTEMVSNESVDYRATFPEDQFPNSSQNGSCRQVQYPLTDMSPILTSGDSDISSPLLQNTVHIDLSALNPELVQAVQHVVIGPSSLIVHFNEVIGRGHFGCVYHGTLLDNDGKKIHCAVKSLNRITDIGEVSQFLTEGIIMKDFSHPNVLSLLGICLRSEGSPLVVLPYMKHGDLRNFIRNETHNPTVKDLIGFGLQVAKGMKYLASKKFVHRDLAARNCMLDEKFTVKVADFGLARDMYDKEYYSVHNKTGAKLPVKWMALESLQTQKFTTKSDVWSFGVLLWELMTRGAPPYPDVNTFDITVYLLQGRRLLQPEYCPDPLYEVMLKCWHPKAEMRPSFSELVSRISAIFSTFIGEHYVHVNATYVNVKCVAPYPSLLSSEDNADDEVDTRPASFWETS
Sequence of UniProt Q96RN5 (Q96RN5 whole entry): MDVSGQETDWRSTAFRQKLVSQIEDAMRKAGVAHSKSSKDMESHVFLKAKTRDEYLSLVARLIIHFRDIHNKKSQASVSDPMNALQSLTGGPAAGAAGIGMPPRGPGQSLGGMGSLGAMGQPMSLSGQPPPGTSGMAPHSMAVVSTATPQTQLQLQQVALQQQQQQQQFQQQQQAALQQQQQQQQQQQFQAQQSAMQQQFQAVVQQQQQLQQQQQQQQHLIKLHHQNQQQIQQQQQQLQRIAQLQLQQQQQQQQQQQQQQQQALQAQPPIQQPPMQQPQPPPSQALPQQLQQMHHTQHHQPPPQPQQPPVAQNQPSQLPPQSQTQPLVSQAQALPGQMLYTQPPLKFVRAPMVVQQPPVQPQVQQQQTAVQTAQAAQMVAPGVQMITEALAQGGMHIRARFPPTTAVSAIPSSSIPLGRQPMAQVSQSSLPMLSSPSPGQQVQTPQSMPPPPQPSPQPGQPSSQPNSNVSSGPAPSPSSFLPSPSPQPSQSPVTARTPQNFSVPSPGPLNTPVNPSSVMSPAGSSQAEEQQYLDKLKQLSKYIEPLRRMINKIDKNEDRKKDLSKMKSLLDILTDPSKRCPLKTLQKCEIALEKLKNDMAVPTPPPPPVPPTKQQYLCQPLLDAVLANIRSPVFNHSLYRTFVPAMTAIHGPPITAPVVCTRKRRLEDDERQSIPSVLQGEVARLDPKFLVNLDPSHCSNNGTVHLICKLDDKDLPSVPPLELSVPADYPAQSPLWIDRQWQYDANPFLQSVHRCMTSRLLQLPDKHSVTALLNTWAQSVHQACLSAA

Target	thermal stability z-score (lipoamide; [1])	thermal stability z-score (lipoamide; arsenate co-treatment: none)	thermal stability z-score (potassium arsenate)
MED8 (UniProt Q96G25)	0.954	0.843	0.0962
MED12 (UniProt Q93074)	-0.255	-0.248	0.0377
MED14 (UniProt O60244)	-0.0798	-0.176	-0.2
MED15 (UniProt Q96RN5)	-0.382	-0.574	-2.01
MED16 (UniProt Q9Y2X0)	-0.0673	0.0989	-0.0825
MED17 (UniProt Q9NVC6)	0.255	-0.466	-0.697
MED18 (UniProt Q9BUE0)	-0.0409	0.0953	-0.382
MED20 (UniProt Q9H944)	0.506	-0.154	-0.226
MED23 (UniProt Q9ULK4)	-0.0582	-0.269	-0.274
MED24 (UniProt O75448)	0.0619	-0.0126	-0.0686
MED25 (UniProt Q71SY5)	-0.264	-0.252	0.0488
MED27 (UniProt Q6P2C8)	-0.0367	0.069	0.0267
MEF2D (UniProt Q14814)	0.00357	0.197	0.288
MELK (UniProt Q14680)	-0.0697	-0.0146	-0.32
MEMO1 (UniProt Q9Y316)	0.326	0.0877	0.0822
MEPCE (UniProt Q7L2J0)	-0.372	0.65	1.22
MESDC2 (UniProt Q14696)	-1.36	-1.28	0.346
MET (UniProt P08581)	-0.338	-0.235	0.073
METAP1 (UniProt P53582)	-0.0942	-0.673	0.894
METAP2 (UniProt P50579)	0.0427	0.326	0.409
METTL1 (UniProt Q9UBP6)	0.351	0.439	0.207
METTL2A (UniProt Q96IZ6)	0.394	0.528	-0.0971
METTL2B (UniProt Q6P1Q9)	-0.019	-0.11	-0.0568
METTL3 (UniProt Q86U44)	-0.16	0.0119	0.165
METTL5 (UniProt Q9NRN9)	0.768	-0.318	0.233
METTL7A (UniProt Q9H8H3)	2.84	2.54	0.632
METTL10 (UniProt Q5JPI9)	-0.0093	0.0402	0.206
METTL13 (UniProt Q8N6R0)	-0.507	-0.621	0.0691
METTL14 (UniProt Q9HCE5)	0.355	-0.836	-0.164
METTL15 (UniProt A6NJ78)	0.0439	-0.103	0.348
